Source: ChEMBL document CHEMBL1132873, “Synthesis and structural analysis of the active enantiomer of famoxadone, a potent inhibitor of cytochrome bc1” (Bioorg Med Chem Lett, 2000)
pIC50: −log10 of the molar value.

Species on record: Rattus norvegicus
Experiment: Compound was tested for inhibition of mitochondrial electron transport
Format: functional

SMILES | pIC50
C[C@@]1(c2ccc(Oc3ccccc3)cc2)OC(=O)N(Nc2ccccc2)C1=O [FAMOXADONE] | 7.96
CN(c1ccccc1)N1C(=O)O[C@@](C)(c2ccc(Oc3ccccc3)cc2)C1=O | 7.46
